From patent US20240408114A1, “METHODS FOR PREVENTING AND TREATING ACUTE KIDNEY INJURY” (The Johns Hopkins University, priority 2021, published 2024) come the findings set out here.

What all share (type): in vivo, mouse
For one experiment, the system named is kidney T cells. Description: T cell phenotypes in normal steady-state kidneys. The following applies: normal mice, same dosage schedule; vs vehicle. On the procedure:
To test whether this immunologic effect was derived from the glutamine blockade or attenuated kidney injury, we studied normal mice treated with JHU083 or vehicle with the same dosage schedule. […] Therefore, changes seen in these markers in post-ischemic kidneys are likely through JHU083-mediated glutamine blockade.
(§1) KMNCs were isolated according to our previously described Percoll density gradient protocol. Ascon et al., 2006. Briefly, decapsulated kidneys were immersed and incubated in collagenase D (2 mg/mL; Sigma-Aldrich) solution for 30 min at 37° C. Samples were strained through 70 µm cell strainer (BD Bioscience, Franklin Lakes, NJ), washed, and resuspended in 40% Percoll (GE Healthcare, Chicago, IL) followed by gentle overlaying onto 80% Percoll. After centrifugation at 1,500 g for 30 min in brake off mode at room temperature, KMNCs were collected from interface between 40% and 80% Percoll. […] Cells were counted on hemocytometer using trypan blue exclusion under a microscope.
(§2) Cells were washed once with phosphate buffered saline (PBS) and stained with viability dye Zombie NIR Fixable Viability (BioLegend, San Diego, CA) for 15 min at room temperature. […] Samples were analyzed by 4-laser Aurora spectral flow cytometer (Cytek, Fremont, CA). […]

The test system of experiment [1] is cisplatin-induced AKI in mice. Briefly: Cisplatin-induced (nephrotoxic) AKI model: kidney function and histology. On the procedure: Given the significant protective outcomes in ischemic AKI, we subsequently tested the effect of glutamine blockade on a nephrotoxic AKI model, which is another common etiology of clinical AKI. After pretreatment with JHU083 or vehicle, 25 mg/kg of cisplatin was injected intraperitoneally. T cells were isolated and studied after 72 h after cisplatin treatment (FIG. 16A).
Cisplatin (cis-diammineplatinum II dichloride; Sigma-Aldrich, St. Louis, MO) was freshly dissolved into 0.9% saline (1 mg/mL) on the day of injection. The dissolved solution was incubated in water bath at 40° C. for 10 min to achieve complete dissolution. A single 25 mg/kg dose of cisplatin was injected intraperitoneally.
Blood samples were obtained at 0, 24, 48, and 72 h after IRI or cisplatin injection through tail vein collection. Plasma creatinine concentration was measured by Cobas Mira Plus automated analyzer system (Roche, Indianapolis, IN) with creatinine reagent (Pointe Scientific Inc, Canton, MI).
At 24 h after IRI and 72 h after cisplatin injection, mice were anesthetized with ketamine (130 mg/kg; VetOne, Boise, ID) and xylazine (7 mg/kg; Akorn) intraperitoneal injection. After exsanguination, kidneys were collected and fixed with 10% buffered formalin followed by paraffin embedding. Tissue sections were stained with hematoxylin and eosin. A renal pathologist scored necrotic tubules in a blinded fashion.
Glutamine antagonist, JHU083 was synthesized as previously described, Rais et al., 2016, and dissolved in 50 mM […] 4-(2-hydroxyethyl)-1-piperazineethanesulfonic acid (HEPES) buffered 0.9% saline. Aliquot stocks were stored at −80° C. and thawed right before injection. Before the IRI surgery or cisplatin injection, mice were administered 1.83 mg/kg JHU083 (equivalent to 1 mg/kg DON) or vehicle (50 mM HEPES buffered 0.9% saline) every other day via intraperitoneal injection. Following 4 consecutive dosages, mice underwent IRI surgery or cisplatin injection. The last additional dose was given at 24 h after IRI or cisplatin injection. […]

A further experiment relates to splenic T cells. Briefly: Splenic T cell phenotypes in post-IRI mice. The note with it: vs vehicle. On the procedure: T cell proliferation assessed with Ki67 expression was reduced in CD4^+ and CD8^+ T cells from JHU083 treated post-ischemic kidneys (Ki67^+, CD4^+ T cells 58.7±2.9 vs 50.6±2.1%, P=0.035; CD8^+ T cells, 61.2±4.2% vs 48.4±4.1%, P=0.043) (FIG. 15). […] We also studied immunophenotypes of splenic T cells from post-IRI mice.
as §1, §2

Turning to `CCOC(=O)[C@H](CCC(=O)C=[N+]=[N-])NC(=O)[C@@H](N)CC(C)C` [JHU083], the “phenotype of CD4+ and CD8+ T cells in steady-state kidneys” value in the experiment with kidney T cells is “skewed toward naïve phenotypes with lower CD69, CD44, and Ki67 and higher CD62L”. The “plasma creatinine at 72 h” value in experiment [1] (72 h after cisplatin 25 mg/kg i.p., JHU083 pretreatment, vehicle 2.28±0.34, P=0.016) was 1.17 ± 0.24 mg/dL. In experiment [1] (72 h after cisplatin, vehicle 57.1±3.7, P<0.001), this compound showed a medullary necrotic tubules of 19.9±4.5%. In addition, the cortical necrotic tubules in experiment [1] (72 h after cisplatin, vehicle 58.1±4.9, P=0.243) is reported as 20.9±7.0%. Moreover, the “immunophenotypes of splenic CD4+ and CD8+ T cells” value in the experiment on splenic T cells was “increased naïve phenotypes with low CD44 and high CD62L expression”.
